Read-outs that look alike come from different tables or passages of the source.
Experiments:
[1] = tested on: pain after surgical extraction of four third molars; conditions: for PID Score, Least Squares Mean (Standard Error): PI-NRS 0-10, difference from baseline
Experimental: (§1) 1. Time-Weighted Sum of Pain Intensity Difference Score From Baseline (0 Hour) to 6 Hours (SPID 0-6) [Time Frame: Baseline (0 hour) up to 6 hours post-dose]. Time-weighted sum of the pain intensity difference (SPID) score was measured using a Pain Intensity-Numerical Rating Scale (PI-NRS) ranging from 0-10 (0=no pain, 10=very severe pain). The possible range of SPID for 0-6 hours was from −60 to 60. A higher value of SPID indicated greater pain relief. PID was the difference between baseline pain intensity and pain intensity at assessment. Time-weighted sum of the pain intensity difference scores were derived by first multiplying each PID score by the time from the previous time point and adding these time-weighted PID scores together over the intervals from 0 to 6 hours.
2. Time-weighted Sum of Pain Intensity Difference Score From Baseline (0 Hour) to 12 Hours (SPID 0-12) [Time Frame: Baseline (0 hour) up to 12 hours post-dose]. Time-weighted sum of the pain intensity difference score was measured using a PI-NRS ranging from 0-10 (0=no pain, 10=very severe pain). The possible range of SPID for 0-12 hours was from-120 to 120. A higher value of SPID indicated greater pain relief. PID was the difference between baseline pain intensity and pain intensity at assessment (12 hours). Time-weighted sum of the pain intensity difference scores were derived by first multiplying each PID score by the time from the previous time point and adding these time-weighted PID scores together over the intervals from 0 to 12 hours.
4. Time-Weighted Sum of Pain Intensity Difference Score From Baseline (0 Hour) to 8 Hours (SPID 0-8) [Time Frame: Baseline (0 hour) up to 8 hours post-dose]. Time-weighted sum of the pain intensity difference score was measured using a PI-NRS ranging from 0-10 (0=no pain, 10=very severe pain). The possible range of SPID for 0-8 hours was from −80 to 80. A higher value of SPID indicated greater pain relief. PID was the difference between baseline pain intensity and pain intensity at assessment (8 hours). Time-weighted sum of the pain intensity difference scores were derived by first multiplying each PID score by the time from the previous time point and adding these time-weighted PID scores together over the intervals from 0 to 8 hours.
6. Pain Intensity Difference (PID) Scores at Individual Time Points [Time Frame: 0.25 hours, 0.5 hours, 0.75 hours, 1 hours, 1.25 hours, 1.5 hours, 2 hours, 3 hours, 4 hours, 5 hours, 6 hours, 7 hours, 8 hours, 9 hours, 10 hours, 11 hours, and 12 hours]. Pain Intensity was self-reported over 12 hours, using a pain rating of 0-10 on the PI-NRS, with score ranged from 0-10 (0=no pain; 10 =worst imaginable pain). Pain intensity differences were calculated with respect to baseline at each time point after study drug administration.
as §1, with “Time-Weighted” for “1. Time-Weighted”, “0-6):” for “0-6) [Time Frame: Baseline (0 hour) up to 6 hours post-dose].”
Time-weighted Sum of Pain Intensity Difference Score From Baseline (0 Hour) to 12 Hours (SPID 0-12): Time-weighted sum of the pain intensity difference score was measured using a PI-NRS ranging from 0-10 (0=no pain, 10=very severe pain). The possible range of SPID for 0-12 hours was from-120 to 120. A higher value of SPID indicated greater pain relief. PID was the difference between baseline pain intensity and pain intensity at assessment (12 hours).

[2] = tested on: pain after surgical extraction of four third molars; conditions: for PAR Score, Least Squares Mean (Standard Error): PR-NRS 0-10
Experimental: (§2) 1. Time-Weighted Sum of Total Pain Relief Score From Baseline (0 Hour) to 6 Hours (TOTPAR 0-6) [Time Frame: Baseline (0 hour) up to 6 hours post-dose]. Time-weighted total pain relief (TOTPAR) was measured using a Pain Relief Numerical Rating Scale (PR-NRS) ranging from 0-10 (0=no relief, 10=complete relief). Total pain relief scores (TOTPARs) were calculated by multiplying the pain relief score at each postdose time point by the duration (in hours) since the preceding time point and then summing these values. The minimum value was 0, and the maximum value was 60. Higher scores was indicative of more pain relief.
as §2, with “2.” for “1.”, “8” for “6”, “0-8)” for “0-6)”, “TOTPAR” for “Time-weighted total pain relief (TOTPAR)”, “PR-NRS” for “Pain Relief Numerical Rating Scale (PR-NRS)”, “80.” for “60.”
as §2, with “3.” for “1.”, “12” for “6”, “0-12)” for “0-6)”, “TOTPAR” for “Time-weighted total pain relief (TOTPAR)”, “PR-NRS” for “Pain Relief Numerical Rating Scale (PR-NRS)”, “120.” for “60.”
5. Pain Relief (PAR) Scores at Individual Timepoints [Time Frame: 0.25 hours, 0.5 hours, 0.75 hours, 1 hours, 1.25 hours, 1.5 hours, 2 hours, 3 hours, 4 hours, 5 hours, 6 hours, 7 hours, 8 hours, 9 hours, 10 hours, 11 hours, and 12 hours]. Participants answered a question at individual time points: “how much relief do you have from your starting pain?” on a 11-point PR-NRS. Scale ranged from 0=no relief to 10=complete relief. Higher score indicated improvement in pain.
as §2, with “Time-Weighted” for “1. Time-Weighted”, “0-6):” for “0-6) [Time Frame: Baseline (0 hour) up to 6 hours post-dose].”
(§3) Time-Weighted Sum of Total Pain Relief Score From baseline (0 Hour) to 8 Hours (TOTPAR 0-8): TOTPAR was measured using a PR-NRS ranging from 0-10 (0=no relief, 10=complete relief). Total pain relief scores (TOTPARs) were calculated by multiplying the pain relief score at each postdose time point by the duration (in hours) since the preceding time point and then summing these values. The minimum value was 0, and the maximum value was 80. Higher scores was indicative of more pain relief.
as §3, with “Baseline” for “baseline”, “Hour” for “Hour)”, “12” for “8”, “0-12):” for “0-8):”, “120.” for “80.”
Pain Relief (PAR) Scores at Timepoints: Participants answered a question at individual time points: “how much relief do you have from your starting pain?” on a 11-point PR-NRS. Scale ranged from 0-no relief to 10-complete relief.

[3] = tested on: pain after surgical extraction of four third molars; conditions: single oral dose; up to 12 hours; scale poor (0) to excellent (4)
Experimental: Participant's Global Evaluation of Study Medication OR Overall Impression of Study Medication According to Participant's Global Evaluation [Time Frame: Up to 12 hours]. Participants were asked to rate their overall impression of the study medication using the following scale: poor (0), fair (1), good (2), very good (3), and excellent (4) where higher score represented better outcome.
Participant's Global Evaluation of Study Medication OR Overall Impression of Study Medication According to Participant's Global Evaluation: Participants were asked to rate their overall impression of the study medication using the following scale: poor (0), fair (1), good (2), very good (3), and excellent (4) where higher score represented better outcome

With `COc1ccc2cc([C@H](C)C(=O)O)ccc2c1` [Arm 2: Naproxen Sodium 440 mg, naproxen sodium] as the compound, how does the “PID Score, Least Squares Mean (Standard Error)” value (“PID Score … (Standard Error)” for short) ([1]; 0.25 Hours post-dose) read?
Its value is 0.58 (0.15).

And the “PID Score … (Standard Error)” value ([1]; 0.5 Hours post-dose)?
The value was 1.82 (0.24).

And the “PID Score … (Standard Error)” value ([1]; 0.75 Hours post-dose)?
Its value is 3.15 (0.27).

And the “PID Score … (Standard Error)” value ([1]; 1 Hours post-dose)?
Its value is 3.97 (0.28).

And the “PID Score … (Standard Error)” value ([1]; 1.25 Hours post-dose)?
The value was 4.50 (0.28).

And the “PID Score … (Standard Error)” value ([1]; 1.5 Hours post-dose)?
The value was 4.72 (0.28).

What about the “PID Score … (Standard Error)” value ([1]; 2 Hours post-dose) of the same compound?
Its value is 4.87 (0.28).

What about the “PID Score … (Standard Error)” value ([1]; 3 Hours post-dose) of the same compound?
The value was 4.75 (0.30).

And the “PID Score … (Standard Error)” value ([1]; 4 Hours post-dose)?
Its value is 4.63 (0.31).

And the “PID Score … (Standard Error)” value ([1]; 5 Hours post-dose)?
Its value is 4.59 (0.32).

What about the “PID Score … (Standard Error)” value ([1]; 6 Hours post-dose) of the same compound?
The value was 4.50 (0.32).

What about the “PID Score … (Standard Error)” value ([1]; 7 Hours post-dose) of the same compound?
Its value is 4.36 (0.32).

What about the “PID Score … (Standard Error)” value ([1]; 9 Hours post-dose) of the same compound?
Its value is 4.04 (0.33).

And the “PID Score … (Standard Error)” value ([1]; 10 Hours post-dose)?
Its value is 4.01 (0.35).

What about the “PID Score … (Standard Error)” value ([1]; 11 Hours post-dose) of the same compound?
The value was 3.99 (0.35).

What about the “PID Score … (Standard Error)” value ([1]; 12 Hours post-dose) of the same compound?
The value was 3.91 (0.36).

What about the “Time-Weighted Sum of Pain Intensity Difference Score From Baseline (0 Hour) to 6 Hours (SPID 0-6), Least Squares Mean (Standard Error)” value ([1]; single oral dose, possible range -60 to 60, higher = greater pain relief) of the same compound?
The value was 25.59 (1.562).

What about the “Time-Weighted Sum of Pain Intensity Difference Score From Baseline (0 Hour) to 8 Hours (SPID 0-8), Least Squares Mean (Standard Error)” value ([1]; single oral dose, possible range -80 to 80, higher = greater pain relief) of the same compound?
Its value is 34.11.

What about the “Time-weighted Sum of Pain Intensity Difference Score From Baseline (0 Hour) to 12 Hours (SPID 0-12), Least Squares Mean (Standard Error)” value ([1]; single oral dose, possible range -120 to 120, higher = greater pain relief) of the same compound?
The value was 50.07 (3.341).

And the “PAR Score, Least Squares Mean (Standard Error)” value (from here on “PAR Score … (Standard Error)”) ([2]; 0.25 Hours post-dose)?
The value was 0.80 (0.18).

What about the “PAR Score … (Standard Error)” value ([2]; 0.5 Hours post-dose) of the same compound?
The value was 2.27 (0.31).

What about the “PAR Score … (Standard Error)” value ([2]; 0.75 Hours post-dose) of the same compound?
The value was 4.11 (0.35).

What about the “PAR Score … (Standard Error)” value ([2]; 1 Hours post-dose) of the same compound?
The value was 5.29 (0.35).

What about the “PAR Score … (Standard Error)” value ([2]; 1.25 Hours post-dose) of the same compound?
Its value is 5.99 (0.35).

What about the “PAR Score … (Standard Error)” value ([2]; 1.5 Hours post-dose) of the same compound?
Its value is 6.36 (0.34).

And the “PAR Score … (Standard Error)” value ([2]; 2 Hours post-dose)?
The value was 6.62 (0.34).

And the “PAR Score … (Standard Error)” value ([2]; 3 Hours post-dose)?
Its value is 6.52 (0.35).

What about the “PAR Score … (Standard Error)” value ([2]; 4 Hours post-dose) of the same compound?
The value was 1.46 (0.36).

What about the “PAR Score … (Standard Error)” value ([2]; 5 Hours post-dose) of the same compound?
The value was 6.45 (0.37).

What about the “PAR Score … (Standard Error)” value ([2]; 6 Hours post-dose) of the same compound?
The value was 6.26 (0.38).

And the “PAR Score … (Standard Error)” value ([2]; 8 Hours post-dose)?
The value was 5.95 (0.39).

And the “PAR Score … (Standard Error)” value ([2]; 9 Hours post-dose)?
Its value is 5.73 (0.40).

And the “PAR Score … (Standard Error)” value ([2]; 10 Hours post-dose)?
Its value is 5.71 (0.42).

And the “PAR Score … (Standard Error)” value ([2]; 11 Hours post-dose)?
The value was 5.71 (0.43).

What about the “PAR Score … (Standard Error)” value ([2]; 12 Hours post-dose) of the same compound?
The value was 5.62 (0.44).

And the “Time-Weighted Sum of Total Pain Relief Score From Baseline (0 Hour) to 6 Hours (TOTPAR 0-6), Least Squares Mean (Standard Error)” value ([2]; single oral dose, range 0 to 60, higher = more pain relief)?
The value was 35.20 (1.848).

And the “Time-Weighted Sum of Total Pain Relief Score From baseline (0 Hour) to 8 Hours (TOTPAR 0-8), Least Squares Mean (Standard Error)” value ([2]; single oral dose, range 0 to 80, higher = more pain relief)?
Its value is 47.19.

And the “Time-Weighted Sum of Total Pain Relief Score From Baseline (0 Hour to 12 Hours (TOTPAR 0-12), Least Squares Mean (Standard Error))” value ([2]; single oral dose, range 0 to 120, higher = more pain relief)?
Its value is 69.96.

And the “Participant's Global Evaluation of Study Medication, Least Squares Mean (Standard Error)” value [3]?
The value was 2.7 (0.13).

From patent publication US20260021064A1, “ACETAMINOPHEN AND NAPROXEN FOR TREATING PAIN” (Kenvue Brands LLC, priority 2022, published 2026)
